The experiment addresses T1, Interleukin-1 receptor-associated kinase 4 (Homo sapiens, UniProt Q9NWZ3).
T1 sequence (Q9NWZ3 whole entry): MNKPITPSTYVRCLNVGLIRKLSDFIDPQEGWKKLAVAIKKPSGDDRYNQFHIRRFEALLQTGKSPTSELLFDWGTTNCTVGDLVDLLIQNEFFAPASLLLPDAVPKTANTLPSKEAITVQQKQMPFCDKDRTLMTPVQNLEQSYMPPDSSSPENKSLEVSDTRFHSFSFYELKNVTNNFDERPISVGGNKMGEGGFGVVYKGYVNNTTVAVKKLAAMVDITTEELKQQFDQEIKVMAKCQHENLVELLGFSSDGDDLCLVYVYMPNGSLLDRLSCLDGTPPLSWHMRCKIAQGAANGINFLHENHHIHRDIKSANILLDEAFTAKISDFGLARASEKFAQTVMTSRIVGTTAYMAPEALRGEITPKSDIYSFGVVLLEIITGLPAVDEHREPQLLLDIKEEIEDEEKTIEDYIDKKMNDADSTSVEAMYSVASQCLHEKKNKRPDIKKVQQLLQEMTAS
The experiment can be described thus: Biochemical Assay: A Z′-Lyte assay based on a fluorescence resonance energy transfer (FRET) readout was developed for measuring IRAK4-dependent phosphorylation of a FRET-peptide substrate as described by Thermo Fisher Scientific (Grand Island, N.Y.). At a starting concentration of 1.5 mM, the identified compounds were serially diluted with 100% dimethyl sulfoxide (DMSO) in 3-fold increments, into Greiner bio-one 96-well plates (cat. #: 650201, Greiner bio-one, Monroe, N.C.). Compounds were then transferred to intermediate Greiner bio-one 96-well plates and diluted 10-fold with Kinase assay buffer (25 mM HEPES, pH 7.5, 10 mM MgCl2, 10 mM MnCl2, 1 mM EGTA, and 0.01% Brij-35, 2 mM DTT). Three μL of the serially diluted compounds were then transferred in duplicate to low-volume 384-well black proxiplates (cat. #: 6008269; Perkin Elmer, Akron, Ohio), to give duplicate twelve-point concentration curves. Six μl of a 2.5× solution of IRAK4 enzyme (cat #: 40064, BPS Bioscience, San Diego, Calif.) in kinase buffer was added to each well, followed by a 10 minutes pre-incubation step. Reactions were initiated by adding 6 μl of a 2.5× substrate mix of ATP and Z′-Lyte Ser/Thr 7 peptide (cat. #: PV3180, Thermo Fisher Scientific, Grand Island, N.Y.) and proceeded at room temperature for 1 hour. […].

Some results are limits rather than exact numbers.

The term IC50 denotes the concentration needed to halve the response being measured. Read a high IC50 as a need for much substance. With `O=C1CCC(N2C(=O)c3ccc(OC4CCC(CN5CCN(Cc6ccc7c(c6)nc(NC(=O)c6cccc(C(F)(F)F)c6)n7C6CCC(CO)CC6)CC5)CC4)cc3C2=O)C(=O)N1` (stereo unspecified), the IC50 is less than 30 nM.

The values above are taken from ChEMBL document CHEMBL5728544, “Compounds and methods for the targeted degradation of interleukin-1 receptor- associated kinase 4 polypeptides” (2021).
